Measured values taken from BindingDB's records for doi:10.1021/np9005629 (Seoul National University, 2010).
Structures can show the parent of a compound that is named as a salt.

Target: T1, Sortase family protein (Staphylococcus aureus, UniProt Q9S446)
T1 sequence (Q9S446 whole entry): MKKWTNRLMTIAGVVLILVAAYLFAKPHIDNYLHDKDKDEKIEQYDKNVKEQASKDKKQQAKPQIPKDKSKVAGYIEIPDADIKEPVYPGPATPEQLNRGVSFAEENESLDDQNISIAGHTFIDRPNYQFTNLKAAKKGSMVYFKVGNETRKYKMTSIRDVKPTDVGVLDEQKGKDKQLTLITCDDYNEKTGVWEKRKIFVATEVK
Experiment: Inhibition of Staphylococcus aureus sortase A after 1 hr in the presence of fluorescent peptide […]-QALPETGEE-Edans by fluorimetry

O=C(O)c1cc[c]([Hg][OH])cc1 [para-(Hydroxymercury)benzoic acid sodium salt]
IC50: 111 µM
